Results from patent publication US7297682B2, “Diphosphate salt of a 4″—substituted-9-deoxo-9 A—AZA—homoerythromycin derivatives and its pharmaceutical composition” (Pfizer Inc., priority 1999, dated 2007).
Structures can show the parent of a compound that is named as a salt.

Tests used:
[1] = hygroscopicity: water uptake and water content versus relative humidity (VTI, Karl Fisher); assay type: physicochemical
Experimental: The crystalline diphosphate salt gradually absorbs water to about 13% at 87% relative humidity with a rapid uptake of water to about 48% occurring at about 90% relative humidity. Thermogravametric analysis on the diphosphate salt discloses that three waters are lost by about 75° C., a fourth water is lost by about 120° C., the fifth water is lost by about 170° C., and the final three waters are lost by about 200° C. The maximum number of water molecules necessary for the stabilization of the crystalline lattice appears to be about eight. Drying the diphosphate salt in about 70° C. in air or about 45° C. in a vacuum removed the water leaving a pseudomorph.
Drying in the VTI at 20-25° C. indicated a weight loss of 10%; the dried salt gradually adsorbed water to 15% at 85% RH (relative humidity), followed by a rapid uptake to 48% at 90% RH. At 90% RH, the compound deliquesced.
The mobility of the water within the crystalline lattice is directly related to the relative humidity of the environment the diphosphate salt comes in contact with. For example, at about 87% relative humidity, the compound contains about 13% water; at 60% relative humidity the compound contains about 8% water; and at 40% relative humidity the diphosphate salt contains about 5% water (all calculations by KF).
Both the liquid crystal and the crystalline form of the diphosphate were hygroscopic. When attempts were conducted in hydrophilic solvents, the addition of 4% to 5% (v/v) water to the amorphous slurry caused the compound to crystallize as an octahydate.

physchem = assay type: physicochemical; details: water

Structure (SMILES) | hygroscopicity [1] | solubility (physchem) [mg/mL] | water adsorbed (gradual) by dried salt ([1]; after drying in the VTI at 20-25° C., at 85% RH) [%] | rapid uptake of water by dried salt ([1]; after drying in the VTI at 20-25° C., at 90% RH) [%] | water content (by KF) ([1]; at 40% relative humidity) | water content (by KF) ([1]; at 60% relative humidity) | water absorbed (gradual) ([1]; at 87% relative humidity) | behaviour at high humidity ([1]; at 90% RH) | water content (by KF) ([1]; at about 87% relative humidity) | rapid uptake of water ([1]; at about 90% relative humidity)
CCCNC[C@]1(O)C(C)OC(OC2C(C)C(=O)OC(CC)[C@@](C)(O)[C@H](O)[C@@H](C)NC[C@H](C)C[C@](C)(O)[C@H](OC3OC(C)CC(N(C)C)[C@H]3O)C2C)C[C@@]1(C)OC (stereo partly drawn) [liquid crystal, (2R,3S,4R,5R,8R,10R,11R,12S,13S,14R)-13-[[2,6-dideoxy-3-C-methyl-3-O-methyl-4-C-[(propylamino)methyl]-α-L-ribo-hexopryanosyl]oxy]-2-ethyl-3,4,10-trihydroxy-3,5,8,10,12,14-hexamethyl-11-[[3,4,6-trideoxy-3-(dimethylamino)-β-D-xylo-hexopyranosyl]oxy]-1-oxa-6-azacyclopentadecan-15-one diphosphate] | hygroscopic | – | – | – | – | – | – | – | – | –
CCCNC[C@]1(O)C(C)OC(OC2C(C)C(=O)OC(CC)[C@@](C)(O)[C@H](O)[C@@H](C)NC[C@H](C)C[C@](C)(O)[C@H](OC3OC(C)CC(N(C)C)[C@H]3O)C2C)C[C@@]1(C)OC (stereo partly drawn) [crystalline diphosphate salt, (2R,3S,4R,5R,8R,10R,11R,12S,13S,14R)-13-[[2,6-dideoxy-3-C-methyl-3-O-methyl-4-C-[(propylamino)methyl]-α-L-ribo-hexopryanosyl]oxy]-2-ethyl-3,4,10-trihydroxy-3,5,8,10,12,14-hexamethyl-11-[[3,4,6-trideoxy-3-(dimethylamino)-β-D-xylo-hexopyranosyl]oxy]-1-oxa-6-azacyclopentadecan-15-one diphosphate] | – | ~280 | 15 | 48 | about 5% | about 8% | about 13% | deliquesced | about 13% | about 48%
